The text below walks through data of patent publication US9415055B2, “Cyclic amines” (H. Lundbeck A/S, priority 2012, dated 2016).

The target of this experiment is P2X7 receptor (Homo sapiens (Human), UniProt Q99572). Briefly: P2X7 FLIPR assay: antagonism of BzATP response in 293 HEK cells stably expressing P2X7 receptor. Type of experiment: cell-based. Conditions: FLIPR fluorescence (Fluo-4), agonist BzATP, 293 HEK cells stably transfected with P2X7 receptor. The procedure: Cells were plated to cell density of approximately 15,000 cells/well in 384-well assay plates (50 μl/well) with 1.5% low serum media (DMEM, 1.5% BCS, 1% L-glut (2 mM), 1% P/S).
P2X7 receptor, sequence (Q99572 whole entry): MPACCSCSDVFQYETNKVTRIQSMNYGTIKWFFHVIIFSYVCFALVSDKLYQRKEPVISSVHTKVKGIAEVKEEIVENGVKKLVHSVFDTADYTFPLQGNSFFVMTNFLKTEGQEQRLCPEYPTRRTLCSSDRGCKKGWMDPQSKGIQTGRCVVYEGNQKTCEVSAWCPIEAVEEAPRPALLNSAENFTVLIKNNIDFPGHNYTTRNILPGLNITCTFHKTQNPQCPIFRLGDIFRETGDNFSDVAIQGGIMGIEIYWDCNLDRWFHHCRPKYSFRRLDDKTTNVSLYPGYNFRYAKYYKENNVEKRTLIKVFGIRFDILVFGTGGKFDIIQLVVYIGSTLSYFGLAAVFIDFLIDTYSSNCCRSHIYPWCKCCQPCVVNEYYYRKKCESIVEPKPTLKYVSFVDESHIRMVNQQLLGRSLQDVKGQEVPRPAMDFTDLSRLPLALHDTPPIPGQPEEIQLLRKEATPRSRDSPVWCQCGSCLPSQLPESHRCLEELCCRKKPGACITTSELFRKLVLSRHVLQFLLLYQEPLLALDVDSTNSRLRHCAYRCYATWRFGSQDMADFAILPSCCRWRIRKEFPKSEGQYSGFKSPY
Cells were plated to cell density of approximately 15,000 cells/well in 384-well assay plates (50 μl/well) with 1.5% low serum media (DMEM, 1.5% FBS, 1% L-glut (2 mM), 10 mM HEPES, 1% P/S). Cells were plated 24 hours prior to assay. Cells expressing human, rat or mouse P2X7 receptor were assayed in the following manner.
Fluo-4 NW dye mix (Molecular Probes, Inc., Eugene, Oreg., USA) was prepared in buffer (see manufacturer's instructions). Cell plates were removed from the 37° C. incubator, the media discarded and then 30 μL of dye was added to each well. Plates were placed in the 37° C., non-CO2 incubator for 30 minutes and then room temperature for 30 minutes.
Compound mixtures (A) were added to assay plates containing cells and placed at room temperature for 30 minutes, then BzATP (B) was added. Fluorescence was read using the Tetra FLIPR® (Molecular Devices, Inc., Sunnyvale, Calif., USA) and IC50 values were calculated by standard methods to determine antagonist activity.

The structures appear in SMILES notation.

A word on the IC50: it is the concentration needed to halve the response being measured. The low end stands for greater potency, the high end for weaker potency. `O=C(NCC(c1cnc(C(F)(F)F)nc1)N1CCC(F)(F)CC1)c1c(F)cc(F)cc1Cl` (single isomer, unassigned; (+)) [(+)2-chloro-N-[2-(4,4-difluoro-1-piperidyl)-2-[2-(trifluorom] [(+)2-chloro-4,6-difluoro-N-(2-(4,4-difluoropiperidin-1-yl)-2-(2-(trifluoromethyl)pyrimidin-5-yl)ethyl)benzamide] had an IC50 of 9.4 nM.

The molecule `O=C(NCC(c1ccc(C(F)(F)F)nc1)N1CCOCC1)c1c(F)cccc1Cl` (single isomer, unassigned; (-)) [(−)2-chloro-6-fluoro-N-(2-morpholino-2-(6-(trifluoromethyl)p] [(−)2-chloro-6-fluoro-N-(2-morpholino-2-(6-(trifluoromethyl)pyridin-3-yl)ethyl)benzamide] displayed an IC50 of 6.1 nM. This IC50 is about 1.5-fold lower than that of the molecule before. As for `O=C(NCC(c1ccc(C(F)F)nc1)N1CCC(F)(F)CC1)c1ccccc1Cl` (single isomer, unassigned; (-)) [(−)2-chloro-N-[2-[6-(difluoromethyl)-3-pyridyl]-2-(4,4-diflu] [(−)2-chloro-N-(2-(2-(difluoromethyl)pyridin-5-yl)-2-(4,4-difluoropiperidin-1-yl)ethyl)benzamide], the figure is 12 nM.

As for `O=C(NCC(c1ccc(C(F)(F)F)nc1)N1CCOCC1)c1cccc(Cl)c1Cl` (stereo not shown) [2,3-dichloro-N-[2-morpholino-2-[6-(trifluoromethyl)-3-pyridy] [2,3-Dichloro-N-[2-morpholino-2-[6-(trifluoromethyl)-3-pyridyl]ethyl]benzamide], the IC50 is 4.6 nM.

As for `Cc1ccc(C(CNC(=O)c2c(F)cccc2Cl)N2CCC(F)(F)CC2)cn1` (single isomer, unassigned; (-)) [(−)2-chloro-N-[2-(4,4-difluoro-1-piperidyl)-2-(6-methyl-3-py] [(−)2-chloro-N-(2-(4,4-difluoropiperidin-1-yl)-2-(6-methylpyridin-3-yl)ethyl)-6-fluorobenzamide], the IC50 is 22 nM. As for `COc1ccc(C(CNC(=O)c2cccc(C)c2C)N2CCOCC2)cc1` (stereo not shown) [N-[2-(4-Methoxy-phenyl)-2-morpholin-4-yl-ethyl]-2,3-dimethyl-benzamide], the figure is 47 nM; as for `O=C(NCC(c1cnc(C(F)(F)F)nc1)N1CCC(F)CC1)c1ccccc1Cl` (single isomer, unassigned; (+)) [(+)2-chloro-N-[2-(4-fluoro-1-piperidyl)-2-[2-(trifluoromethy] [(+)2-chloro-N-(2-(4-fluoropiperidin-1-yl)-2-(2-(trifluoromethyl)pyrimidin-5-yl)ethyl)benzamide], 15 nM. For the molecule `O=C(NCC(c1ccc(C(F)(F)F)nc1)N1CCC(F)(F)CC1)c1c(F)cccc1Cl` (single isomer, unassigned; (-)) [(−)2-chloro-N-[2-(4,4-difluoro-1-piperidyl)-2-[6-(trifluorom] [(−)2-chloro-6-fluoro-N-(2-(4,4-difluoropiperidin-1-yl)-2-(trifluoromethyl)pyridin-5-yl)ethyl)benzamide], the IC50 was 3 nM. The value for `Cc1ncc(C(CNC(=O)c2cccc(Cl)c2Cl)N2CCCCC2)cn1` (single isomer, unassigned; (-)) [(−)2,3-dichloro-N-[2-(2-methylpyrimidin-5-yl)-2-(1-piperidyl] [(−)2,3-dichloro-N-(2-(2-methylpyrimidin-5-yl)-2-(piperidin-1-yl)ethyl)benzamide] was 21 nM. As for `O=C(NCC(c1cnc(C(F)(F)F)nc1)N1CCOCC1)c1cccc(F)c1Cl` (stereo not shown) [2-chloro-3-fluoro-N-(2-morpholino-2-(2-(trifluoromethyl)pyrimidin-5-yl)ethyl)benzamide], the figure is 11 nM. As for `Cc1ncc(C(CNC(=O)c2ccc(Cl)cc2Cl)N2CCC(Cl)CC2)cn1` (stereo not shown) [2,4-dichloro-N-(2-(4-chloropiperidin-1-yl)-2-(2-methylpyrimidin-5-yl)ethyl)benzamide], the figure is 280 nM; as for `COc1ccc(C(=O)NCC(c2cnc(C(F)(F)F)nc2)N2CCC(F)(F)CC2)c(Cl)c1OC` (single isomer, unassigned; (+)) [(+)2-chloro-N-[2-(4,4-difluoro-1-piperidyl)-2-[2-(trifluorom] [(+)2-chloro-3,4-dimethoxy-N-(2-(4,4-difluoropiperidin-1-yl)-2-(2-(trifluoromethyl)pyrimidin-5-yl)ethyl)benzamide], 14 nM.

As to `Cc1cccc(C(=O)NCC(c2ccc(F)cc2)N2CCOCC2)c1C` (stereo not shown) [N-[2-(4-Fluoro-phenyl)-2-morpholin-4-yl-ethyl]-2,3-dimethyl-benzamide], the IC50 is 20 nM. The IC50 values of the last two molecules are within 1.5-fold of each other. The value for `Cc1ncc(C(CNC(=O)c2cccc(F)c2Cl)N2CCOCC2)cn1` (stereo not shown) [2-chloro-3-fluoro-N-(2-(2-methylpyrimidin-5-yl)-2-morpholinoethyl)benzamide] was 1200 nM; that for `Cc1ncc(C(CNC(=O)c2cccc(Cl)c2Cl)N2CCOCC2)cn1` (single isomer, unassigned; (+)) [(+)2,3-dichloro-N-[2-(2-methylpyrimidin-5-yl)-2-morpholino-e] [(+)2,3-Dichloro-N-[2-(2-methylpyrimidin-5-yl)-2-morpholino-ethyl]benzamide] was 69 nM.

`Cc1cccc(C(=O)NCC(c2cccnc2)N2CCOCC2)c1C` (stereo not shown) [2,3-Dimethyl-N-(2-morpholin-4-yl-2-pyridin-3-yl-ethyl)-benzamide] gave an IC50 of 2700 nM. Compared with the last molecule, the IC50 is about 39-fold higher. As for `CCc1ncc(C(CNC(=O)c2c(Cl)cccc2Cl)N2CCC(F)(F)CC2)cn1` (single isomer, unassigned; (+)) [(+)2,6-dichloro-N-[2-(4,4-difluoro-1-piperidyl)-2-(2-ethylpy] [(+2,6-dichloro-N-(2-(4,4-difluoropiperidin-1-yl)-2-(2-ethylpyrimidin-5-yl)ethyl)benzamide], the figure is 15 nM; as for `Cc1ccc(C(CNC(=O)c2cccc(F)c2Cl)N2CCC(F)(F)CC2)cn1` (single isomer, unassigned; (+)) [(+)2-chloro-N-[2-(4,4-difluoro-1-piperidyl)-2-(6-methyl-3-py] [(+)2-chloro-3-fluoro-N-(2-(4,4-difluoropiperidin-1-yl)-2-(2-methylpyridin-5-yl)ethyl)benzamide], 33 nM; as for `COc1cccc(C(=O)NCC(c2cnc(C(F)(F)F)nc2)N2CCC(F)(F)CC2)c1Cl` (single isomer, unassigned; (-)) [(−)2-chloro-N-[2-(4,4-difluoro-1-piperidyl)-2-[2-(trifluorom] [(−)2-chloro-N-(2-(4,4-difluoropiperidin-1-yl)-2-(2-(trifluoromethyl)pyrimidin-5-yl)ethyl)-3-methoxybenzamide], 4.8 nM. Molecule `O=C(NCC(c1cncnc1)N1CCOCC1)c1cccc(Cl)c1Cl` (stereo not shown) [2,3-Dichloro-N-(2-morpholino-2-pyrimidin-5-yl-ethyl)benzamide] gave a half-inhibitory concentration (IC50) of 28 nM. Compared with the last molecule, the IC50 is about 5.8-fold higher. As for `Cc1ncc(C(CNC(=O)c2c(Cl)ccc(F)c2Cl)N2CCC(F)(F)CC2)cn1` (single isomer, unassigned; (+)) [(+)2,6-dichloro-N-[2-(4,4-difluoro-1-piperidyl)-2-(2-methylp] [(+)2,6-dichloro-5-fluoro-N-(2-(4,4-difluoropiperidin-1-yl)-2-(2-methylpyrimidin-5-yl)ethyl)benzamide], the figure is 25 nM; as for `Cc1ncc(C(CNC(=O)c2ccccc2Cl)N2CCC(F)CC2)cn1` (single isomer, unassigned; (-)) [(−)2-chloro-N-[2-(4-fluoro-1-piperidyl)-2-(2-methylpyrimidin] [(−)2-chloro-N-(2-(4-fluoropiperidin-1-yl)-2-(2-methylpyrimidin-5-yl)ethyl)benzamide], 45 nM; as for `Cc1ncc(C(CNC(=O)c2ccccc2Cl)N2CCOCC2)cn1` (single isomer, unassigned; (+)) [(+)2-chloro-N-[2-(2-methylpyrimidin-5-yl)-2-morpholino-ethyl] [(+)2-chloro-N-(2-(2-methylpyrimidin-5-yl)-2-morpholinoethyl)benzamide], 630 nM. As for `Cc1ncc(C(CNC(=O)c2cccc(Cl)c2Cl)N2CCCCC2C)cn1` (stereo not shown) [2,3-dichloro-N-(2-(2-methylpiperidin-1-yl)-2-(2-methylpyrimidin-5-yl)ethyl)benzamide], the figure is 310 nM; as for `Cc1ncc(C(CNC(=O)c2ccccc2Cl)N2CCCCC2)cn1` (single isomer, unassigned; (+)) [(+)2-chloro-N-[2-(2-methylpyrimidin-5-yl)-2-(1-piperidyl)eth] [(+)2-chloro-N-(2-(2-methylpyrimidin-5-yl)-2-(piperidin-1-yl)ethyl)benzamide], 59 nM; as for `O=C(NCC(c1ccc(Cl)cc1)N1CCCOCC1)c1cccc(Cl)c1Cl` (stereo not shown) [2,3-dichloro-N-(2-(4-chlorophenyl)-2-(1,4-oxazepan-4-yl)ethyl)benzamide], 17 nM. As for `Cc1ncc(C(CNC(=O)c2cccc(F)c2Cl)N2CCCOCC2)cn1` (stereo not shown) [2-chloro-3-fluoro-N-(2-(2-methylpyrimidin-5-yl)-2-(1,4-oxazepan-4-yl)ethyl)benzamide], the figure is 330 nM; as for `Cc1ncc(C(CNC(=O)c2c(Cl)cccc2Cl)N2CCC(F)CC2)cn1` (single isomer, unassigned; (-)) [(−)2,6-dichloro-N-[2-(4-fluoro-1-piperidyl)-2-(2-methylpyrim] [(−)2,6-dichloro-N-(2-(4-fluoropiperidin-1-yl)-2-(2-methylpyrimidin-5-yl)ethyl)benzamide], 53 nM.
